Test results published in ChEMBL document CHEMBL5523766 (J Med Chem, 2024).

What was measured:
[1] = Efflux ratio of apparent permeability across […] side in human Caco-2 cells; assay type: ADME, cell-based
[2] = system: HT-29; test: Antiproliferative activity against human HT-29 cells assessed as inhibition of cell growth incubated for 72 hrs by MTS assay; assay type: functional, cell-based; details: HT-29, 72 h
[3] = AUCinfinity in ICR mouse at 50 mg/kg,po measured upto 24 hrs by LC-MS/MS analysis; assay type: ADME, organism-based; details: in vivo
[4] = biological target: CYP2D6 (Homo sapiens, UniProt P10635); test: Time dependent inhibition of CYP2D6 (unknown origin) at 10 uM relative to control; assay type: ADME; details: read-out: TDI
[5] = biological target: T1, Serine/threonine-protein kinase mTOR (Homo sapiens, UniProt P42345); test: Inhibition of human mTOR at 10 uM relative to control
[6] = biological target: T2, Tyrosine-protein kinase Lck (Homo sapiens, UniProt P06239); test: Inhibition of human LCK
Target sequence in this assay (P06239 whole entry): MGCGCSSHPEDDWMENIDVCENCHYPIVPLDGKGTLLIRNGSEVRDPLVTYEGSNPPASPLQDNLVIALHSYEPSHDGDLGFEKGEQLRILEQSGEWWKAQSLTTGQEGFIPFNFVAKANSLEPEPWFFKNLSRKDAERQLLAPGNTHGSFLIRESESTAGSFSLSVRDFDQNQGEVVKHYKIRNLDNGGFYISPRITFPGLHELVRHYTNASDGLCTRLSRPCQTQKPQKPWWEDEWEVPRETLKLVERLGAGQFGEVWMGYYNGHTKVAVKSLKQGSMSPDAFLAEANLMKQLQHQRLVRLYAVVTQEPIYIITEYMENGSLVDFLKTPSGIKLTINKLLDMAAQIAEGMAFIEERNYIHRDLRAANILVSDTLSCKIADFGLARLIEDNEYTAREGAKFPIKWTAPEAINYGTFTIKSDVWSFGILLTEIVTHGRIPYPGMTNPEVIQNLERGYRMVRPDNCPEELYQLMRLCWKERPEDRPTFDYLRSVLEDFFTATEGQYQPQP

[7] = Plasma protein binding in mouse; assay type: ADME, cell-free; details: read-out: PPB (converted)
[8] = system: CAPAN-1; test: Antiproliferative activity against human CAPAN-1 cells assessed as inhibition of cell growth incubated for 72 hrs by MTS assay; assay type: functional, cell-based; details: CAPAN-1, 72 h
[9] = Tmax in ICR mouse at 50 mg/kg,po measured upto 24 hrs by LC-MS/MS analysis; assay type: ADME, organism-based; details: in vivo
[10] = biological target: AMPK alpha2/beta1/gamma1 (Homo sapiens, UniProt P54619+P54646+Q9Y478); test: Inhibition of human AMPK alpha2/beta1/gamma1; assay type: protein-complex assay
[11] = biological target: NUAK family SNF1-like kinase 1 (Homo sapiens) (UniProt O60285); test: Inhibition of human ARK5 at 10 uM relative to control
[12] = biological target: CYP2C19 (Homo sapiens, UniProt P33261); test: Time dependent inhibition of CYP2C19 (unknown origin) at 10 uM relative to control; assay type: ADME; details: read-out: TDI
[13] = Lipophilicity, logD of compound at pH 7.4; assay type: physicochemical; details: buffer
[14] = biological target: AMPK alpha2/beta1/gamma1 (Homo sapiens) (UniProt P54646+P54619+Q9Y478); test: Inhibition of human AMPK alpha2/beta1/gamma1 at 10 uM relative to control; assay type: protein-complex assay
[15] = system: Granta-519; test: Antiproliferative activity against human Granta-519 cells assessed as inhibition of cell growth incubated for 72 hrs by MTS assay; assay type: functional, cell-based; details: Granta-519, 72 h
[16] = biological target: Serine/threonine-protein kinase 17B (Homo sapiens) (UniProt O94768); test: Inhibition of human DRAK2 at 10 uM relative to control
Chain of Serine/threonine-protein kinase 17B (Homo sapiens) (O94768 whole entry): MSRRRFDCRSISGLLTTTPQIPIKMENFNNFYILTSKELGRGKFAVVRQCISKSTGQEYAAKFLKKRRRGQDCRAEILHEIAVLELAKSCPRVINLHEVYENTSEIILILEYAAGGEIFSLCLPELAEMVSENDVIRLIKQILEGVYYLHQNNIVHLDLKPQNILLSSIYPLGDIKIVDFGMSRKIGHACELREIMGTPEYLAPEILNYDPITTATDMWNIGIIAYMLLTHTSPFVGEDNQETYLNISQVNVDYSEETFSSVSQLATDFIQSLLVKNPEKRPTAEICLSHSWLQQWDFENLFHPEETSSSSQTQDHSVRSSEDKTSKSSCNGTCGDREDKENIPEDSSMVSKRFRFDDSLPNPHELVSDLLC

[17] = Apparent permeability across basolateral to apical side in dog MDCK-MDR1 cells; assay type: ADME, cell-based, Canis lupus familiaris
[18] = Cmax in ICR mouse at 50 mg/kg,po measured upto 24 hrs by LC-MS/MS analysis; assay type: ADME, organism-based; details: in vivo
[19] = Apparent permeability across apical to basolateral side in dog MDCK-MDR1 cells; assay type: ADME, cell-based, Canis lupus familiaris
[20] = biological target: T3, Tyrosine-protein kinase Lyn (Homo sapiens, UniProt P07948); test: Inhibition of human LYN
[21] = system: NCI-H446; test: Antiproliferative activity against human NCI-H446 cells assessed as inhibition of cell growth incubated for 72 hrs by MTS assay; assay type: functional, cell-based; details: NCI-H446, 72 h
[22] = biological target: T4, Cyclin-dependent kinase 2 (Homo sapiens, UniProt P24941); test: Inhibition of human CDK2 at 10 uM relative to control
[23] = biological target: T4, Cyclin-dependent kinase 2; test: Inhibition of human CDK2
[24] = biological target: T5, Tyrosine-protein kinase BTK (Homo sapiens, UniProt Q06187); test: Inhibition of human BTK
T5 sequence (Q06187 whole entry): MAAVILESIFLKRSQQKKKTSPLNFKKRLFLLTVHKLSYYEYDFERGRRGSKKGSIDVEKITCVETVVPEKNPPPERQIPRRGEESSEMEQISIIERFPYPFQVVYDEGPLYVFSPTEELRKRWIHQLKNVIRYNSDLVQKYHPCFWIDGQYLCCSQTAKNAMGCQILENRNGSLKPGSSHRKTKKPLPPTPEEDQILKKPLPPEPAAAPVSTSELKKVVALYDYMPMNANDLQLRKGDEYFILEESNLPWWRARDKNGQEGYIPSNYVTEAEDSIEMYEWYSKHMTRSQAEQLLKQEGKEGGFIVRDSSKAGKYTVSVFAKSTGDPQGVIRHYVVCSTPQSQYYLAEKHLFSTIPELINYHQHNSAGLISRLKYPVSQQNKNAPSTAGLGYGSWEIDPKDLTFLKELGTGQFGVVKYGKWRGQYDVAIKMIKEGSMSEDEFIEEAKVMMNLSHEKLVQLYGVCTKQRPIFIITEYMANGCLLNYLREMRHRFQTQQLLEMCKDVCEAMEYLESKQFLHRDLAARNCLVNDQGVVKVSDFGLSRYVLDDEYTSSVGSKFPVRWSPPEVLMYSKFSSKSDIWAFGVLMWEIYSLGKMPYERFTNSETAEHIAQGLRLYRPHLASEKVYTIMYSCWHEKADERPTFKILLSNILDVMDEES

[25] = system: A2780; test: Antiproliferative activity against human A2780 cells assessed as inhibition of cell growth incubated for 72 hrs by MTS assay; assay type: functional, cell-based; details: A2780, 72 h
[26] = Apparent permeability across basolateral to apical side in human Caco-2 cells; assay type: ADME, cell-based
[27] = biological target: NUAK family SNF1-like kinase 1 (Homo sapiens, UniProt O60285); test: Inhibition of human ARK5
[28] = biological target: Serine/threonine-protein kinase BRSK2 (Homo sapiens, UniProt Q8IWQ3); test: Inhibition of human BRSK2
[29] = biological target: Tyrosine-protein kinase ABL1 (Homo sapiens, UniProt P00519); test: Inhibition of human ABL
[30] = biological target: T1, Serine/threonine-protein kinase mTOR; test: Inhibition of human mTOR
[31] = biological target: T2, Tyrosine-protein kinase Lck; test: Inhibition of human LCK at 10 uM relative to control
[32] = biological target: T6, Aurora kinase B (Homo sapiens, UniProt Q96GD4); test: Inhibition of human Aurora B at 10 uM relative to control
T6 sequence (Q96GD4 whole entry): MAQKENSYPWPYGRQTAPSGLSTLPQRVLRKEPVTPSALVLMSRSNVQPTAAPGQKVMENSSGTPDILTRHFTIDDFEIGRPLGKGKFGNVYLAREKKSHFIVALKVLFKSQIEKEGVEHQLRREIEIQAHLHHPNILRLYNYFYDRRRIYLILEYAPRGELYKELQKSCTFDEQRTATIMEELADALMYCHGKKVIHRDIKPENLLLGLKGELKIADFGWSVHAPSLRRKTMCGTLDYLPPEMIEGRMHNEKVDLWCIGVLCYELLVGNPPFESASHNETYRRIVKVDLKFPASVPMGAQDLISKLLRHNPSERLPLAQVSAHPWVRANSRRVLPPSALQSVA

[33] = AUClast in ICR mouse at 50 mg/kg,po measured upto 24 hrs by LC-MS/MS analysis; assay type: ADME, organism-based; details: in vivo
[34] = biological target: CYP3A4 (Homo sapiens, UniProt P08684); test: Time dependent inhibition of CYP3A4 (unknown origin) at 10 uM relative to control; assay type: ADME; details: read-out: TDI
[35] = biological target: Interleukin-1 receptor-associated kinase 4 (Homo sapiens) (UniProt Q9NWZ3); test: Inhibition of human IRAK4 at 10 uM relative to control
Chain of Interleukin-1 receptor-associated kinase 4 (Homo sapiens) (Q9NWZ3 whole entry): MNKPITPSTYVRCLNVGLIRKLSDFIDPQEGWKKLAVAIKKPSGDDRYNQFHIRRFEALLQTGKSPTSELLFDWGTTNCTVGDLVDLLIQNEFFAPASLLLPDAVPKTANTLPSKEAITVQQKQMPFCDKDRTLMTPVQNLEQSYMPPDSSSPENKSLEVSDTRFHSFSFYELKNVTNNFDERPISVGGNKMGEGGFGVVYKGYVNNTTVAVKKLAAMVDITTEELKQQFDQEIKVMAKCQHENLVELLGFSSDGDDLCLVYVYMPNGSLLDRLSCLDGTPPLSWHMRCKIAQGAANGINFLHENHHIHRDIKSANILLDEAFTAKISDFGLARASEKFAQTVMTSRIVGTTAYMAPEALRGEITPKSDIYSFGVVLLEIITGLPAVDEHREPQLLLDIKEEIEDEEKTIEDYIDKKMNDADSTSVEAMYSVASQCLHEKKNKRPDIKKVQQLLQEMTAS

[36] = biological target: T6, Aurora kinase B; test: Inhibition of human Aurora B
[37] = biological target: Receptor-type tyrosine-protein kinase FLT3 (Homo sapiens, UniProt P36888); test: Inhibition of human FLT3
[38] = system: SUD4; test: Antiproliferative activity against human SU-DHL-4 cells assessed as inhibition of cell growth incubated for 72 hrs by MTS assay; assay type: functional, cell-based; details: SU-DHL-4, 72 h
[39] = Efflux ratio of apparent permeability across […] side in dog MDCK-MDR1 cells; assay type: ADME, cell-based, Canis lupus familiaris
[40] = biological target: Serine/threonine-protein kinase 17B (Homo sapiens, UniProt O94768); test: Inhibition of human DRAK2
Chain of Serine/threonine-protein kinase 17B (O94768 whole entry): as the sequence (O94768 whole entry) above

[41] = system: OCI-Ly10; test: Antiproliferative activity against human OCI-Ly10 cells assessed as inhibition of cell growth incubated for 72 hrs by MTS assay; assay type: functional, cell-based; details: OCI-Ly10, 72 h
[42] = biological target: Serine/threonine-protein kinase BRSK2 (Homo sapiens) (UniProt Q8IWQ3); test: Inhibition of human BRSK2 at 10 uM relative to control
[43] = biological target: CYP1A2 (Homo sapiens, UniProt P05177); test: Time dependent inhibition of CYP1A2 (unknown origin) at 10 uM relative to control; assay type: ADME; details: read-out: TDI
Chain of CYP1A2 (P05177 whole entry): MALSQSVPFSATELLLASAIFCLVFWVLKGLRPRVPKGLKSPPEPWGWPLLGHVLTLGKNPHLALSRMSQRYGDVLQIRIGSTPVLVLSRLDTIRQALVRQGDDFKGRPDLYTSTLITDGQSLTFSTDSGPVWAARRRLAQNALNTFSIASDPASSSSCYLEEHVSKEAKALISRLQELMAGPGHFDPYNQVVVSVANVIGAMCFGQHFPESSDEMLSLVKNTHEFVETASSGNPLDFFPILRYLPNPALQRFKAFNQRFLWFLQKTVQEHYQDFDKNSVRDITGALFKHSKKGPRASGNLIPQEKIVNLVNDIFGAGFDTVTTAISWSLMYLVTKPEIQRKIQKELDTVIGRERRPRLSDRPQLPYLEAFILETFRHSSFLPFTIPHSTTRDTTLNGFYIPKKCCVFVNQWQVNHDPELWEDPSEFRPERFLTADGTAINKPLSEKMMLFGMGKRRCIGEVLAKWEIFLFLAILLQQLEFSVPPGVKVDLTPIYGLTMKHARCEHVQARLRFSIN

[44] = biological target: Interleukin-1 receptor-associated kinase 4 (Homo sapiens, UniProt Q9NWZ3); test: Inhibition of human IRAK4
Chain of Interleukin-1 receptor-associated kinase 4 (Q9NWZ3 whole entry): as the sequence (Q9NWZ3 whole entry) above

[45] = system: HCT-116; test: Antiproliferative activity against human HCT-116 cells assessed as inhibition of cell growth incubated for 72 hrs by MTS assay; assay type: functional, cell-based; details: HCT-116, 72 h
[46] = system: LoVo; test: Antiproliferative activity against human LoVo cells assessed as inhibition of cell growth incubated for 72 hrs by MTS assay; assay type: functional, cell-based
[47] = biological target: CYP2C9 (Homo sapiens, UniProt P11712); test: Time dependent inhibition of CYP2C9 (unknown origin) at 10 uM relative to control; assay type: ADME; details: read-out: TDI
Chain of CYP2C9 (P11712 whole entry): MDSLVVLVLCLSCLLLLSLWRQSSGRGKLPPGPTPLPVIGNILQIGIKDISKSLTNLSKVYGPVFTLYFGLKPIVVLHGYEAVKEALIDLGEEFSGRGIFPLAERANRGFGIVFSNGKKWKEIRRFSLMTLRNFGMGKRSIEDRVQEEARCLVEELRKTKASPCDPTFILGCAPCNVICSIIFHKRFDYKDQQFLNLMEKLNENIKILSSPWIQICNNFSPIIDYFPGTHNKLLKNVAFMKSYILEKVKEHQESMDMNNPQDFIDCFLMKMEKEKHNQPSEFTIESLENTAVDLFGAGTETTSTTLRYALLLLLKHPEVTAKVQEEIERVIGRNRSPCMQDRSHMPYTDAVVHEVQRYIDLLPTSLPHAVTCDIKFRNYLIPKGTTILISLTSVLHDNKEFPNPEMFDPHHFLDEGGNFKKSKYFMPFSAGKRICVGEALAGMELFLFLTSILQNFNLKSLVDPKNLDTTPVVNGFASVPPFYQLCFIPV

[48] = biological target: Tyrosine-protein kinase Mer (Homo sapiens, UniProt Q12866); test: Inhibition of human MER
[49] = Apparent permeability across apical to basolateral side in human Caco-2 cells; assay type: ADME, cell-based
[50] = biological target: T7, Tyrosine-protein kinase JAK1 (Homo sapiens, UniProt P23458); test: Inhibition of human JAK1 at 10 uM relative to control
T7 sequence (P23458 whole entry): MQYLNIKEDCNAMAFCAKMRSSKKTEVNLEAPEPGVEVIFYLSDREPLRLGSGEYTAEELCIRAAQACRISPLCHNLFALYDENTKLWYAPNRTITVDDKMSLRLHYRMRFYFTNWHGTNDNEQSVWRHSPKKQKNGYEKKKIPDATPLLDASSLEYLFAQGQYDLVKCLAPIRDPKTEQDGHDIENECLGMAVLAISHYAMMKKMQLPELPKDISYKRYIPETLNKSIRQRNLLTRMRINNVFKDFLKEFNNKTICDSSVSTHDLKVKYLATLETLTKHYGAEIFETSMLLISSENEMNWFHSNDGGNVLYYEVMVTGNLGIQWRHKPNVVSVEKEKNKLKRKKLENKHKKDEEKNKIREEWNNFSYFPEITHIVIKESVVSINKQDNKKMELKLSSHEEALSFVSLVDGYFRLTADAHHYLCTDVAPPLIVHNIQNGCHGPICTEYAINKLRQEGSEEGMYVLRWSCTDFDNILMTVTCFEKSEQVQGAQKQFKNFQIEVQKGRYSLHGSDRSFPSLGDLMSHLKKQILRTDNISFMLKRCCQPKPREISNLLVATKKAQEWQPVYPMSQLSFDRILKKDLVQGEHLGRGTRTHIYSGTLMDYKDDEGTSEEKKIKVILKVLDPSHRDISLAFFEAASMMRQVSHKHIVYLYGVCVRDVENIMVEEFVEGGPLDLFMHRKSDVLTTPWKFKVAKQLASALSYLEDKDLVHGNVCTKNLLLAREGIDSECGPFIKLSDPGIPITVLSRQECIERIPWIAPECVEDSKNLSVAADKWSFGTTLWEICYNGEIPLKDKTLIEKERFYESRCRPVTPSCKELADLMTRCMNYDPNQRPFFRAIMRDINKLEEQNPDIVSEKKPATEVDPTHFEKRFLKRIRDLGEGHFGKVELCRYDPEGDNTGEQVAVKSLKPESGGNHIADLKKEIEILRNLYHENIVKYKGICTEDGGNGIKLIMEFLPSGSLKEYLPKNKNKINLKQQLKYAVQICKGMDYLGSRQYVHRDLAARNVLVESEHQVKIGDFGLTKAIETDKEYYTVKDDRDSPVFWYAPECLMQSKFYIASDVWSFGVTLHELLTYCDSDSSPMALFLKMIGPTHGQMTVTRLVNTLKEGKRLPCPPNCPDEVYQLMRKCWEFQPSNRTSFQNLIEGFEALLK

[51] = biological target: Receptor-type tyrosine-protein kinase FLT3 (Homo sapiens) (UniProt P36888); test: Inhibition of human FLT3 at 10 uM relative to control
[52] = system: PC-3; test: Antiproliferative activity against human PC-3 cells assessed as inhibition of cell growth incubated for 72 hrs by MTS assay; assay type: functional, cell-based; details: PC-3, 72 h
[53] = system: DLD-1; test: Antiproliferative activity against human DLD-1 cells assessed as inhibition of cell growth incubated for 72 hrs by MTS assay; assay type: functional, cell-based; details: DLD-1, 72 h
[54] = biological target: T5, Tyrosine-protein kinase BTK; test: Inhibition of human BTK at 10 uM relative to control
[55] = biological target: Tyrosine-protein kinase Mer (Homo sapiens) (UniProt Q12866); test: Inhibition of human MER at 10 uM relative to control
[56] = Half life in ICR mouse at 50 mg/kg,po measured upto 24 hrs by LC-MS/MS analysis; assay type: ADME, organism-based; details: in vivo
[57] = biological target: T7, Tyrosine-protein kinase JAK1; test: Inhibition of human JAK1
[58] = biological target: ATR/ATRIP (Homo sapiens, UniProt Q13535); test: Inhibition of ATR/ATRIP (unknown origin) using 5-FAM-AK-17 as substrate preincubated with compound for 10 mins followed by ATP addition and measured after 240 mins by mobility shift assay; assay type: protein-complex assay
[59] = biological target: T3, Tyrosine-protein kinase Lyn; test: Inhibition of human LYN at 10 uM relative to control

In the case of `C[C@@H]1COCCN1c1nc(-c2cncc3[nH]ccc23)nc2c1ccn2S(C)(=O)=O`, the efflux ratio [1] is reported as 1.41, the IC50 [2] is reported as 350 nM and the AUC(0-inf) [3] is reported as 46700 ng·h/mL. For the same compound, the inhibition at 10 µM [4] was 3.71%, the inhibition [5] was 102% and the IC50 [6] was 4950 nM. It also gave a fraction unbound [7] of 0.006, an IC50 [8] of 820 nM and a Tmax [9] of 0.5 h. It also gave an IC50 [10] greater than 10000 nM, an inhibition [11] of 20.5% and an inhibition at 10 µM [12] of 0%. The logD [13] was 3.11, the inhibition [14] was 1.11% and the IC50 [15] was 100 nM. For the same compound, the inhibition [16] was 24.6%, the Papp B→A [17] was 29 ×10⁻⁶ cm/s and the Cmax [18] was 18900 ng/mL. The Papp A→B [19] was 6.02 ×10⁻⁶ cm/s, the IC50 [20] was greater than 10000 nM and the IC50 [21] was 230 nM. For the same compound, the inhibition [22] was 5.98%, the IC50 [23] was greater than 10000 nM and the IC50 [24] was greater than 10000 nM. It also gave an IC50 [25] of 90 nM, a Papp B→A [26] of 30.2 ×10⁻⁶ cm/s and an IC50 [27] greater than 10000 nM. It also gave an IC50 [28] greater than 10000 nM, an IC50 [29] greater than 10000 nM and an IC50 [30] of 22.4 nM. The inhibition [31] was 79.2%, the inhibition [32] was 22.5% and the AUC(0-t) at 24 h [33] was 46700 ng·h/mL. The inhibition at 10 µM [34] was 18.6%, the inhibition [35] was 46.1% and the IC50 [36] was greater than 10000 nM. The IC50 [37] was greater than 10000 nM, the IC50 [38] was 300 nM and the efflux ratio [39] was 4.81. For the same compound, the IC50 [40] was greater than 10000 nM, the IC50 [41] was 100 nM and the inhibition [42] was 21.6%. It also gave an inhibition at 10 µM [43] of 28.6%, an IC50 [44] greater than 10000 nM and an IC50 [45] of 150 nM. It also gave an IC50 [46] of 150 nM, an inhibition at 10 µM [47] of 0% and an IC50 [48] greater than 10000 nM. For the same compound, the Papp A→B [49] was 21.5 ×10⁻⁶ cm/s, the inhibition [50] was 29.5% and the inhibition [51] was 62.8%. The IC50 [52] was 780 nM, the IC50 [53] was 460 nM and the inhibition [54] was 41.8%. It also gave an inhibition [55] of 35.7%, a half-life [56] of 2.01 h and an IC50 [57] greater than 10000 nM. It also gave an IC50 [58] of 1.6 nM and an inhibition [59] of 13.3%.
